According to PubChem BioAssay AID1918995 (Molecular Pharmacology Branch, DTP, NCI, 2023):
pIC50: −log10 of the molar value. Values joined by “and” are separate entries in the source; they are usually repeats but may differ in a detail not shown here. Equal entries are not always repeated. Values belong to the molecule of their own block, whether it stands above or below them.

System: 324938-238-R-J1-PDC complex spheroid growth, % test/control
Assay: Anticancer human tumor 324938-238-R-J1-PDC patient-derived bladder carcinoma cell line growth inhibition [AhR]
Conditions: for viability, T/C: stronger effect = lower value
Summary of the method: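 Agents were dosed in half-log steps down from roughly clinical Cmax, or from 10 microM where Cmax was unknown, alone and with AhR antagonists. Read-out: percent test/control growth of tumor spheroids containing HUVEC and MSC stromal cells.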

[1] = curve of first compound, second compound 0.1 µM
[2] = curve of first compound, second compound 0.316 µM
[3] = curve of first compound, second compound 1 µM
[4] = curve of first compound, second compound 3.16 µM
[5] = curve of first compound, second compound 10 µM
[6] = second compound 0.1 µM, first compound 0.0316 µM
[7] = second compound 0.1 µM, first compound 0.1 µM
[8] = second compound 0.1 µM, first compound 0.316 µM
[9] = second compound 0.1 µM, first compound 1 µM
[10] = second compound 0.1 µM, first compound 3.16 µM
[11] = second compound 0.1 µM, first compound 10 µM
[12] = second compound 0.316 µM, first compound 0.0316 µM
[13] = second compound 0.316 µM, first compound 0.1 µM
[14] = second compound 0.316 µM, first compound 0.316 µM
[15] = second compound 0.316 µM, first compound 1 µM
[16] = second compound 0.316 µM, first compound 3.16 µM
[17] = second compound 0.316 µM, first compound 10 µM
[18] = second compound 1 µM, first compound 0.0316 µM
[19] = second compound 1 µM, first compound 0.1 µM
[20] = second compound 1 µM, first compound 0.316 µM
[21] = second compound 1 µM, first compound 1 µM
[22] = second compound 1 µM, first compound 3.16 µM
[23] = second compound 1 µM, first compound 10 µM
[24] = second compound 3.16 µM, first compound 0.0316 µM
[25] = second compound 3.16 µM, first compound 0.1 µM
[26] = second compound 3.16 µM, first compound 0.316 µM
[27] = second compound 3.16 µM, first compound 1 µM
[28] = second compound 3.16 µM, first compound 3.16 µM
[29] = second compound 3.16 µM, first compound 10 µM
[30] = second compound 10 µM, first compound 0.0316 µM
[31] = second compound 10 µM, first compound 0.1 µM
[32] = second compound 10 µM, first compound 0.316 µM
[33] = second compound 10 µM, first compound 1 µM
[34] = second compound 10 µM, first compound 3.16 µM
[35] = second compound 10 µM, first compound 10 µM
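Also: spheroids exposed to agents for seven days before viability read.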

SMILES: NS(=O)(=O)OCC1CC(n2ccc3c(NC4CCc5ccccc54)ncnc32)CC1O (stereo unspecified) + Cc1cncc(-c2nc(NCCc3c[nH]c4ccccc34)c3ncn(C(C)C)c3n2)c1
- pIC50 [1]: 5.58
- pIC50 [2]: 5.61
- pIC50 [3]: 5.53
- pIC50 [4]: 5.07
- pIC50 [5]: > 7.50
- viability, T/C [6]: 122%
- viability, T/C [7]: 101%
- viability, T/C [8]: 93.4%
- viability, T/C [9]: 71.9%
- viability, T/C [10]: 42.9%
- viability, T/C [11]: 25.7%
- viability, T/C [12]: 99.7%
- viability, T/C [13]: 104%
- viability, T/C [14]: 99.9%
- viability, T/C [15]: 71%
- viability, T/C [16]: 46.4%
- viability, T/C [17]: 32.5%
- viability, T/C [18]: 82.3%
- viability, T/C [19]: 95.5%
- viability, T/C [20]: 95.3%
- viability, T/C [21]: 97.6%
- viability, T/C [22]: 47.5%
- viability, T/C [23]: 29.1%
- viability, T/C [24]: 80%
- viability, T/C [25]: 114%
- viability, T/C [26]: 140%
- viability, T/C [27]: 103%
- viability, T/C [28]: 64.2%
- viability, T/C [29]: 47.5%
- viability, T/C [30]: 7.19%
- viability, T/C [31]: 15.3%
- viability, T/C [32]: 19%
- viability, T/C [33]: 23%
- viability, T/C [34]: 14.3%
- viability, T/C [35]: 7.16%

SMILES: CC1(C)CCC(CN2CCN(c3ccc(C(=O)NS(=O)(=O)c4ccc(NCC5CCOCC5)c([N+](=O)[O-])c4)c(Oc4cnc5[nH]ccc5c4)c3)CC2)=C(c2ccc(Cl)cc2)C1 + CC(CO)NC(=O)c1cc(-c2ccc(Cl)cc2)nn(-c2cnn(C)c2)c1=O
- pIC50 [1]: < 5.00
- pIC50 [2]: < 5.00
- pIC50 [3]: < 5.00
- pIC50 [4]: < 5.00
- pIC50 [5]: < 5.00
- viability, T/C [6]: 102%
- viability, T/C [7]: 101%
- viability, T/C [8]: 91.8%
- viability, T/C [9]: 77.1%
- viability, T/C [10]: 72.4%
- viability, T/C [11]: 61.4%
- viability, T/C [12]: 96.2%
- viability, T/C [13]: 96.7%
- viability, T/C [14]: 89.9%
- viability, T/C [15]: 82.2%
- viability, T/C [16]: 70.9%
- viability, T/C [17]: 61.8%
- viability, T/C [18]: 80.6%
- viability, T/C [19]: 87.9%
- viability, T/C [20]: 92.3%
- viability, T/C [21]: 72%
- viability, T/C [22]: 68.2%
- viability, T/C [23]: 62%
- viability, T/C [24]: 71.8%
- viability, T/C [25]: 77.6%
- viability, T/C [26]: 68.3%
- viability, T/C [27]: 61.3%
- viability, T/C [28]: 65.5%
- viability, T/C [29]: 54.4%
- viability, T/C [30]: 62.2%
- viability, T/C [31]: 63.4%
- viability, T/C [32]: 67.6%
- viability, T/C [33]: 59.4%
- viability, T/C [34]: 61.5%
- viability, T/C [35]: 50.6%

SMILES: CC(C)c1c(-c2ccccc2)nc2c(C#N)c[nH]n2c1=O + CC(CO)NC(=O)c1cc(-c2ccc(Cl)cc2)nn(-c2cnn(C)c2)c1=O
- pIC50 [1]: < 5.00
- pIC50 [2]: < 5.00
- pIC50 [3]: < 5.00
- pIC50 [4]: < 5.00
- pIC50 [5]: < 5.00
- viability, T/C [6]: 110%
- viability, T/C [7]: 115%
- viability, T/C [8]: 88.1%
- viability, T/C [9]: 87.2%
- viability, T/C [10]: 92.5%
- viability, T/C [11]: 88%
- viability, T/C [12]: 94.7%
- viability, T/C [13]: 98.9%
- viability, T/C [14]: 92.8%
- viability, T/C [15]: 78.8%
- viability, T/C [16]: 88.5%
- viability, T/C [17]: 81.2%
- viability, T/C [18]: 87.5%
- viability, T/C [19]: 88.1%
- viability, T/C [20]: 87.4%
- viability, T/C [21]: 76.5%
- viability, T/C [22]: 89.2%
- viability, T/C [23]: 75.8%
- viability, T/C [24]: 73.4%
- viability, T/C [25]: 76.4%
- viability, T/C [26]: 71%
- viability, T/C [27]: 64.4%
- viability, T/C [28]: 63.4%
- viability, T/C [29]: 60.9%
- viability, T/C [30]: 65.4%
- viability, T/C [31]: 67%
- viability, T/C [32]: 64%
- viability, T/C [33]: 57.9%
- viability, T/C [34]: 54.9%
- viability, T/C [35]: 56.5%

SMILES: Nc1ncn(C2CC(O)C(CO)O2)c(=O)n1 (stereo unspecified)
- viability, T/C (compound 0.00316 µM): 69.8% and 99.6% and 102%
- viability, T/C (compound 0.01 µM): 96.2% and 113% and 94.2%
- viability, T/C (compound 0.0316 µM): 82.3% and 98.6% and 85.2%
- viability, T/C (compound 0.1 µM): 83.7% and 98.3% and 96.2%
- viability, T/C (compound 0.316 µM): 128% and 80.2% and 81.7%
- viability, T/C (compound 1 µM): 92.8% and 72% and 68.3%
- pIC50 (curve of compound): < 6.00

SMILES: O=C(c1cc(Cc2n[nH]c(=O)c3ccccc23)ccc1F)N1CCN(C(=O)C2CC2)CC1
- viability, T/C (compound 0.0316 µM): 115% and 100% and 97.8%
- viability, T/C (compound 0.1 µM): 73.1% and 102% and 96.9%
- viability, T/C (compound 0.316 µM): 66% and 103% and 82%
- viability, T/C (compound 1 µM): 86.6% and 110% and 88.1%
- viability, T/C (compound 3.16 µM): 69.2% and 90.5% and 77.8%
- viability, T/C (compound 10 µM): 79% and 74.1% and 47.3%
- pIC50 (curve of compound): < 5.00 and 5.03

Second part, led by results:

- pIC50 (curve of compound): 8.32 and 8.27 and 8.74
SMILES: CC(C)CC(NC(=O)C(Cc1ccccc1)NC(=O)c1cnccn1)B(O)O (stereo unspecified)
- viability, T/C (compound 0.000949 µM): 87.9% and 116% and 93.5%
- viability, T/C (compound 0.003 µM): 85.2% and 98.1% and 15.2%
- viability, T/C (compound 0.00949 µM): 0.63% and 1.24% and 0.3%
- viability, T/C (compound 0.03 µM): 0.28% and 0.36% and 0.27%
- viability, T/C (compound 0.0949 µM): 0.78% and 0.3% and 0.27%
- viability, T/C (compound 0.3 µM): 0.76% and 0.41% and 0.31%

- pIC50 [1]: 8.75
- pIC50 [2]: 8.77
- pIC50 [3]: 8.76
- pIC50 [4]: 8.85
- pIC50 [5]: 8.86
SMILES: CC(C)CC(NC(=O)C(Cc1ccccc1)NC(=O)c1cnccn1)B(O)O (stereo unspecified) + CC(CO)NC(=O)c1cc(-c2ccc(Cl)cc2)nn(-c2cnn(C)c2)c1=O
- viability, T/C (second compound 0.1 µM, first compound 0.000949 µM): 89%
- viability, T/C (second compound 0.1 µM, first compound 0.003 µM): 18.1%
- viability, T/C (second compound 0.1 µM, first compound 0.00949 µM): 0.1%
- viability, T/C (second compound 0.1 µM, first compound 0.03 µM): 0.06%
- viability, T/C (second compound 0.1 µM, first compound 0.0949 µM): 0.07%
- viability, T/C (second compound 0.1 µM, first compound 0.3 µM): 0.21%
- viability, T/C (second compound 0.316 µM, first compound 0.000949 µM): 85.8%
- viability, T/C (second compound 0.316 µM, first compound 0.003 µM): 14.3%
- viability, T/C (second compound 0.316 µM, first compound 0.00949 µM): 0.09%
- viability, T/C (second compound 0.316 µM, first compound 0.03 µM): 0.06%
- viability, T/C (second compound 0.316 µM, first compound 0.0949 µM): 0.07%
- viability, T/C (second compound 0.316 µM, first compound 0.3 µM): 0.16%
- viability, T/C (second compound 1 µM, first compound 0.000949 µM): 86.2%
- viability, T/C (second compound 1 µM, first compound 0.003 µM): 18.1%
- viability, T/C (second compound 1 µM, first compound 0.00949 µM): 0.13%
- viability, T/C (second compound 1 µM, first compound 0.03 µM): 0.12%
- viability, T/C (second compound 1 µM, first compound 0.0949 µM): 0.05%
- viability, T/C (second compound 1 µM, first compound 0.3 µM): 0.17%
- viability, T/C (second compound 3.16 µM, first compound 0.000949 µM): 69.1%
- viability, T/C (second compound 3.16 µM, first compound 0.003 µM): 13.6%
- viability, T/C (second compound 3.16 µM, first compound 0.00949 µM): 0.13%
- viability, T/C (second compound 3.16 µM, first compound 0.03 µM): 0.07%
- viability, T/C (second compound 3.16 µM, first compound 0.0949 µM): 0.07%
- viability, T/C (second compound 3.16 µM, first compound 0.3 µM): 0.17%
- viability, T/C (second compound 10 µM, first compound 0.000949 µM): 67.1%
- viability, T/C (second compound 10 µM, first compound 0.003 µM): 14.8%
- viability, T/C (second compound 10 µM, first compound 0.00949 µM): 0.23%
- viability, T/C (second compound 10 µM, first compound 0.03 µM): 0.2%
- viability, T/C (second compound 10 µM, first compound 0.0949 µM): 0.2%
- viability, T/C (second compound 10 µM, first compound 0.3 µM): 0.32%
